Where “and” joins values, the source holds several entries; their conditions need not be identical. Identical values can stand only once. Entries after “also recorded” stand apart in the source; their conditions may differ. Like-named read-outs stand apart in the source and are kept apart here.
What was measured:
mouse islets = assay: Glucagon secretion from mouse islets; assay type: cell-based; details: 25 mM glucose, 1 h
α2A-AR [1] = molecular target: T1, α2A-AR (Rattus norvegicus, UniProt P22909); assay: cell-based; details: HEK-293T
T1 sequence (P22909 1-465): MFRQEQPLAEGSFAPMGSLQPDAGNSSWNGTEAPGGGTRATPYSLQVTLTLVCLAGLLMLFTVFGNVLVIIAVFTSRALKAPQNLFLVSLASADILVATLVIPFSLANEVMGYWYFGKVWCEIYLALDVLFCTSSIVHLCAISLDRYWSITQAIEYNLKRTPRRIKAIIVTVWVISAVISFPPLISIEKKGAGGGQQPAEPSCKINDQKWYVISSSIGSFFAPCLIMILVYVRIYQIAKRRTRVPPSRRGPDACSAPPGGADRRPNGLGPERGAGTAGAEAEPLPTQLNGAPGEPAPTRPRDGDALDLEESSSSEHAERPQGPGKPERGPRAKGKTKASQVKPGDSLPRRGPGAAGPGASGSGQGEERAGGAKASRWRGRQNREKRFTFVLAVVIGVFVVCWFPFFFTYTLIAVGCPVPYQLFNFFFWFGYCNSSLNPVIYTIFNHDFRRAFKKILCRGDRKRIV

α2A-AR [2] = molecular target: T1, α2A-AR; assay type: cell-based; details: nanoBRET
D2R [3] = molecular target: T2, D2R (Homo sapiens, UniProt P14416); assay: cell-based
Target sequence in this assay (P14416 whole entry): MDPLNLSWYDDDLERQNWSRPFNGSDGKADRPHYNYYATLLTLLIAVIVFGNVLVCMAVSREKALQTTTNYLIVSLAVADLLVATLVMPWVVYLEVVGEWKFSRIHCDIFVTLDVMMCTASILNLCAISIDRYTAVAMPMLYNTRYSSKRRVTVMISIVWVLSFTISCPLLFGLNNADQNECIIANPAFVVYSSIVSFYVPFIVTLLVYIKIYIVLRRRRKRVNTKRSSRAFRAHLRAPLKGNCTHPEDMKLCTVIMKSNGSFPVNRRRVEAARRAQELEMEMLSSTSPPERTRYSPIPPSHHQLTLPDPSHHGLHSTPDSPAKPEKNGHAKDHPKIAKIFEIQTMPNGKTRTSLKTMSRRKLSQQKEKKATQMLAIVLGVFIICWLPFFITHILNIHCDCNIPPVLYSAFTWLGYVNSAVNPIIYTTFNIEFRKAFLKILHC
Target sequence in this assay (P32121 whole entry partner): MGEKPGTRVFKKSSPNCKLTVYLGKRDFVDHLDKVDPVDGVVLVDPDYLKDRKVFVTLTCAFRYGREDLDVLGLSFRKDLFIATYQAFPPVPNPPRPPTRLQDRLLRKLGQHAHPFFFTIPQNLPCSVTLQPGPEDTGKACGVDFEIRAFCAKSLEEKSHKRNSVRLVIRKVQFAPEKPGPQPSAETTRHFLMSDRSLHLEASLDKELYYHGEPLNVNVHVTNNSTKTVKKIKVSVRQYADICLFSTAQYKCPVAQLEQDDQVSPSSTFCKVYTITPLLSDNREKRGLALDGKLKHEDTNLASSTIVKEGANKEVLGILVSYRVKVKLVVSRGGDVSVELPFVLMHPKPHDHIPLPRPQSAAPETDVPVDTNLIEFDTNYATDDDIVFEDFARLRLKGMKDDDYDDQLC

D2R [4] = molecular target: T2, D2R
Target sequence in this assay (P14416 whole entry): as the sequence (P14416 whole entry) above

human islets [5] = assay: Insulin secretion from human islets; assay type: cell-based; details: 10 pM and 100 pM, versus vehicle
[6] = test system: α2A-AR KO INS-1E-derived cell line; assay: HTRF cAMP assay in α2A-AR KO INS-1E-derived cells; assay type: cell-based, rat
INS-1E cells [7] = assay: Glucose-stimulated insulin secretion; assay type: cell-based, rat
β1-AR = details: ref Millan et al., 2002; cited from earlier work
α2A-AR [8] = assay: α2A-AR internalization; assay type: cell-based; details: data not shown
D2R [9] = molecular target: T2, D2R; assay: Radioligand competition binding, [3H]-N-methylspiperone, HEK-293 membranes
Target sequence in this assay (P14416 whole entry): as above

D2R [10] = molecular target: T2, D2R; assay: cell-based; details: for EC50: nanoBRET; for Emax: HEK-293T
Target sequence in this assay (P14416 whole entry): as above

α2A-AR [11] = molecular target: T1, α2A-AR; assay type: cell-based; details: nanoBRET; remark: listed apart in the source
INS-1E cells [12] = assay: HTRF cAMP assay in INS-1E cells; assay type: cell-based, rat; details: for Emax, inhibition of cAMP production: normalized to DA's efficacy in parental INS-1E
D2R [13] = molecular target: T2, D2R; details: nanoBRET
Target sequence in this assay (P14416 whole entry): as above

[14] = test system: α2A-AR KO INS-1E-derived cell line; assay: GSIS in α2A-AR knockout INS-1E-derived cell line; assay type: cell-based, rat
human islets [15] = assay: Glucagon secretion from human islets; assay type: cell-based; details: 25 mM glucose, 1 h
mouse pancreatic islets = assay: Glucose-stimulated insulin secretion; assay type: cell-based; details: for IC50: Mus musculus, Pancreatic islet, 1.5 h
D2R [16] = molecular target: T2, D2R; details: cited from earlier work
Target sequence in this assay (P14416 whole entry): as above
Target sequence in this assay (P32121 whole entry partner): as the sequence (P32121 whole entry partner) above

[17] = percentage of recruitment relative to DA
[18] = EC50, Gαi2 recruitment to D2R, Gαi2
[19] = EC50, Gαi3 recruitment to D2R, Gαi3
[20] = EC50, GαoA recruitment to D2R, GαoA

With `CC(C)C[C@H]1C(=O)N2CCC[C@H]2[C@]2(O)O[C@](NC(=O)[C@@H]3C=C4c5cccc6[nH]c(Br)c(c56)C[C@H]4N(C)C3)(C(C)C)C(=O)N12` [Bromocriptine] the “decrease in secreted glucagon” value (mouse islets; 10 pM) was 26.7%, the “decrease in secreted glucagon” value (mouse islets; 100 pM) was 29.7% and the Emax (α2A-AR [1]; read-out: Emax, Gαi1 recruitment to α2A-AR) was 15.4%. The Emax (α2A-AR [1]; read-out: Emax, Gαi2 recruitment to α2A-AR) was 43.8%, the Emax (α2A-AR [1]; read-out: Emax, Gαi3 recruitment to α2A-AR) was 12.7% and the Emax (α2A-AR [1]; read-out: Emax, GαoA recruitment to α2A-AR) was 43%. For the same molecule, the Emax (α2A-AR [1]; read-out: Emax, GαoB recruitment to α2A-AR) was 40.3%, the Emax (α2A-AR [1]; read-out: Emax, Gαz recruitment to α2A-AR) was 21.2% and the “β-arrestin2 recruitment to α2A-AR” value (α2A-AR [2]) was “does not result in measurable recruitment; also recorded: Neither bromocriptine nor DA stimulation of α2A-AR caused significant β-arrestin2 receptor recruitment”. The EC50 (D2R [3]) was 286 nM, the Emax (D2R [3]; read-out: Emax, β-arrestin2 recruitment to D2R) was 60.9% and the “higher potency than DA, Gαi1 recruitment to D2R” value (D2R [4]; EC50 ratio versus DA) was 4.5 fold. For the same molecule, the “higher potency than NE, Gαi1 recruitment to D2R” value (D2R [4]; EC50 ratio versus NE) was 47.2 fold, the “Emax, Gαi1 recruitment to D2R” value (D2R [4]; [17]) was 60.03 [46.83–73.23] % and the “Emax, GαoA recruitment to D2R” value (D2R [4]; [17]) was 109.13 [71.26–147.01] %. For the same molecule, the “Emax, GαoB recruitment to D2R” value (D2R [4]; [17]) was 96.05 [65.07–127.03] %, the “Emax, Gαz recruitment to D2R” value (D2R [4]; [17]) was 66.51 [20.68–112.34] % and the “effect on insulin secretion” value (human islets [5]) was “not significantly altered; also recorded: did not significantly alter”. For the same molecule, the “loss of potency in decreasing cAMP by α2-AR KO” value ([6]; KO versus unmodified cells) was roughly 120 fold, the IC50 ([6]; read-out: IC50, inhibition of cAMP production, α2A-AR KO) was 1200 nM and the “Emax, inhibition of cAMP production” value ([6]; α2A-AR KO, normalized to DA's efficacy in parental INS-1E) was 56.28 [5.32–107.26] % DA. The “decrease of efficacy at reducing GSIS versus bromocriptine alone” value (INS-1E cells [7]; co-treatment with sulpiride (100 nM)) was 66.7%, the “reduction of efficacy of GSIS inhibition versus bromocriptine alone” value (INS-1E cells [7]; co-treatment with yohimbine (100 nM)) was 66.5% and the IC50 (INS-1E cells [7]; read-out: IC50, inhibition of GSIS, INS-1E, 20 mM glucose, 90 min) was 14 nM. The “affinity for β1-AR, lower compared with D2R” value (β1-AR) was roughly 120 fold, the “internalization of α2A-AR following stimulation” value (α2A-AR [8]) was “no detectable internalization” and the Ki (D2R [9]) was 43.2 nM. For the same molecule, the EC50 (D2R [10]; EC50, Gαi1 recruitment to D2R, Gαi1) was 104 nM, the EC50 (D2R [10]; [18]) was 21.6 nM and the EC50 (D2R [10]; [19]) was 84.3 nM. The EC50 (D2R [10]; [20]) was 0.0767 nM and 0.08 nM, the EC50 (D2R [10]; EC50, Gαz recruitment to D2R, Gαz) was 4.3 nM and the Emax (D2R [10]; read-out: Emax, Gαi2 recruitment to D2R, percentage of recruitment relative to DA) was 89.3%. The Emax (D2R [10]; read-out: Emax, GαoA recruitment to D2R, percentage of recruitment relative to DA) was 109%, the Emax (D2R [10]; read-out: Emax, GαoB recruitment to D2R, percentage of recruitment relative to DA) was 96.1% and the Emax (D2R [10]; read-out: Emax, Gαz recruitment to D2R, percentage of recruitment relative to DA) was 66.5%. The EC50 (D2R [10]; pEC50, GαoA recruitment to D2R, GαoA) was 0.0759 nM, the EC50 (D2R [10]; pEC50, GαoB recruitment to D2R, GαoB) was 0.269 nM and the “β-arrestin1 recruitment to α2A-AR” value (α2A-AR [11]) was “negligible recruitment”. The “Emax, inhibition of cAMP production” value (INS-1E cells [12]) was 35.10 [33.09–38.47] % DA, the “Emax, inhibition of cAMP production” value (INS-1E cells [12]; listed as bromocriptine) was 35.1 % DA and the IC50 (INS-1E cells [12]; read-out: IC50, inhibition of cAMP production, forskolin 5 μM, 1 h) was 10.3 nM. For the same molecule, the “β-arrestin1 recruitment to D2R” value (D2R [13]) was “negligible recruitment”, the IC50 ([14]; read-out: IC50, inhibition of GSIS, α2A-AR KO INS-1E-derived cells) was 6.67 nM and the “reduction of efficacy of GSIS inhibition versus parental INS-1E cells” value ([14]; α2A-AR KO) was 80.6%. The “decrease in secreted glucagon” value (human islets [15]; 10 pM) was 30.8%, the “decrease in secreted glucagon” value (human islets [15]; 100 pM) was 36.7% and the IC50 (mouse pancreatic islets; read-out: IC50, inhibition of GSIS) was 15.8 nM. The IC50 (mouse pancreatic islets; read-out: pIC50, inhibition of GSIS (converted)) was 15.8 nM and the “effect on insulin secretion” value (mouse pancreatic islets; mouse islets, picomolar concentrations) was “insufficient to modify insulin secretion”.
In the case of `NC[C@H](O)c1ccc(O)c(O)c1` [NE, norepinephrine], the “pEC50, β-arrestin2 recruitment to D2R” value (D2R [16]) is listed as 4.78 (16745.32) [3.62–5.93], the EC50 (D2R [10]; [18]) is listed as 25.3 nM and the EC50 (D2R [10]; [19]) is listed as 32600 nM. The EC50 (D2R [10]; [20]) was 3350 nM, the EC50 (D2R [10]; EC50, GαoB recruitment to D2R, GαoB) was 139 nM and the “β-arrestin1 recruitment to α2A-AR” value (α2A-AR [11]) was “negligible recruitment”. For the same molecule, the “β-arrestin1 recruitment to D2R” value (D2R [13]) was “negligible recruitment”.
